Test results as given in patent US7923465B2, “Cannabinoid receptor ligands, pharmaceutical compositions containing them, and process for their preparation” (priority 2005, dated 2011).
Read-outs that look alike come from different tables or passages of the source.

Assays:
hCB2 = hCB2 (Homo sapiens, UniProt P34972); test: In vitro binding assay using hCB2-CHO membranes, [3H]-CP-55,940 displacement (Protocol IV); set-up: expressed in transfected cells; host or cells: CHO (hCB2-CHO, generated in-house); details: 1 h, read-out: % Displacement Protocol IV
Summary of the method: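 Displacement of [3H]-CP-55,940 (0.75 nM) from membranes of CHO cells expressing human CB2 (25-50 μg) was measured in Tris-BSA buffer pH 7.4 with 5 mM MgCl2, 1 mM EDTA, 0.1% BSA, 1 h at 30 °C. Test compounds were at 300 nM final; nonspecific binding defined with 0.5 μM CP-55,940. Values are % displacement of specific binding.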

CB1 = CB1 (Rattus norvegicus, UniProt P20272); test: Rat CB1 receptor binding using brain membrane, [3H]SR141716A displacement (Protocol I); set-up: CB1 receptor present in a rat brain membrane preparation; from tissue; host or cells: rat brain membrane; inhibition: dose or concentration left out as unconfirmed; details: 1 h
Protocol: I. In Vitro Protocol for Rat CB1 Receptor Binding Using Brain Membrane
In this assay, [^3H]SR141716A (5-(4-chlorophenyl)-1-(2,4-dichlorophenyl)-4-methyl-N-(1-piperidyl)pyrazole-3-carboxamide) was used to bind the CB1 receptor present in a rat brain membrane preparation which can be displaced by unlabeled ligands having affinity to the CB1 receptor.
The assay was performed according to the modified method of Thomas et al., 1998 (JPET 285: 285-292). The total reaction mixture ([…]) contained Tris-BSA buffer (50 mM Tris, pH 7.4 with 1.5% BSA) or unlabeled SR141716A […] or test samples […], [^3H] SR141716A (2 nM) and […] of rat brain membrane. The non-specific binding was defined by […] of SR141716A. The assay mixture was incubated at 37° C. for 1 hour. The reaction was then stopped by rapid filtration under vacuum using Whatman GF/B-96 micro filter plate. A scintillation cocktail was added and radioactive counts were measured using a Topcount beta scintillation counter.
The standard and test sample dilutions were made in an assay buffer containing either ethanol or DMSO at a final concentration of 1%.
The percent (%) displacement by a test ligand was calculated by comparing the specific bound values.

[1] = hCB2-CHO membranes, [3H]-CP-55,940 displacement
[2] = rat brain membrane, [3H]SR141716A displacement, read-out: % Displacement Protocol I

Sequence of hCB2 (P34972 whole entry): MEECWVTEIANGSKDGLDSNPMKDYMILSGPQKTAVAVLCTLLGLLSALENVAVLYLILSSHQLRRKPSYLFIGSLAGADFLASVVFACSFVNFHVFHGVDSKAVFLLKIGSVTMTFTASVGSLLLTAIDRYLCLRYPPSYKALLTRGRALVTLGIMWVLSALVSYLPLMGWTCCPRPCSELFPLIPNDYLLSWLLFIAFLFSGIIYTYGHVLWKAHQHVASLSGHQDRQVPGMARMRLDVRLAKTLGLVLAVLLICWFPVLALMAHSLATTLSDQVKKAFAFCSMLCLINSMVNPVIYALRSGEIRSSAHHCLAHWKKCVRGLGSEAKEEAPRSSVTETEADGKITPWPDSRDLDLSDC
Sequence of CB1 (P20272 whole entry): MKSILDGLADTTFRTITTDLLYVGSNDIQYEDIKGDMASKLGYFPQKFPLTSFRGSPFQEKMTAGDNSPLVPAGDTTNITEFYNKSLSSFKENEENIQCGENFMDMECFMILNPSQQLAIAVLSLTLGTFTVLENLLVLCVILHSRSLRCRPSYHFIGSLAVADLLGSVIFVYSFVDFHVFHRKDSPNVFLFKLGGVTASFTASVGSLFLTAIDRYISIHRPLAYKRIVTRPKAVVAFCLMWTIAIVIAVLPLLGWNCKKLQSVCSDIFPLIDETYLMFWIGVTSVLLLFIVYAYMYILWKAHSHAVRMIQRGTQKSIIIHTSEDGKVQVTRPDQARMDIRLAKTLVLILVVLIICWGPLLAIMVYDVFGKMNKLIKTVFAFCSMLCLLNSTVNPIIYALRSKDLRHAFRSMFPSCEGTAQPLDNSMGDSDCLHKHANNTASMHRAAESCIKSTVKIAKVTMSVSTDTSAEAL

O=C(NNc1ccccc1Br)c1nn(-c2ccc(Cl)cc2Cl)c2c1C1CC3CC(C1)CC2C3 [Example 176, N(7)-(2-Bromophenylamino)-5-(2,4-dichlorophenyl)-5,6-diazatetracyclo[7.3.1.1^3,11.0^4,8]tetradeca-4(8),6-diene-7-carboxamide]
melting point: 196 to 199 °C | inhibition at 0.3 µM (hCB2; [1]): 30.5% | inhibition (CB1; [2]): 65.6%

O=C(NN1CCCCC1)c1nn(-c2ccccc2)c2c1C1CCC2C1 (stereo not drawn) [Example 201, N(3)-Piperidino-1-phenyl-4,5,6,7-tetrahydro-1H-4,7-methano-indazole-3-carboxamide]
melting point: 144 °C | inhibition at 0.3 µM (hCB2; [1]): 19.8% | inhibition (CB1; [2]): 9%

O=C(NNc1ccccc1)c1n[nH]c2c1C1(c3ccccc3)CCC2C1 (stereo not drawn) [Example 204, N(3)-Phenylamino-4-phenyl-4,5,6,7-tetrahydro-1H-4,7-methano-indazole-3-carboxamide]
melting point: 189 °C | inhibition at 0.3 µM (hCB2; [1]): 10.5% | inhibition (CB1; [2]): -10.3%

O=C(NN1CCCCC1)c1nn(-c2ccccc2Cl)c2c1C1CCC2C1 (stereo not drawn) [Example 205, N(3)-Piperidino-1-(2-chlorophenyl)-4,5,6,7-tetrahydro-1H-4,7-methano-indazole-3-carboxamide]
melting point: 232 °C | inhibition at 0.3 µM (hCB2; [1]): 15.9% | inhibition (CB1; [2]): -12.7%

O=C(NNc1ccccc1)c1nn(-c2ccccc2Cl)c2c1C1CCC2C1 (stereo not drawn) [Example 208, N(3)-Phenylamino-1-(2-chlorophenyl)-4,5,6,7-tetrahydro-1H-4,7-methano-indazole-3-carboxamide]
melting point: 205 °C | inhibition at 0.3 µM (hCB2; [1]): 0% | inhibition (CB1; [2]): -1.2%

O=C(NN1CCCCC1)c1nn(-c2ccc(Cl)cc2)c2c1C1CCC2C1 (stereo not drawn) [Example 209, N(3)-Piperidino-1-(4-chlorophenyl)-4,5,6,7-tetrahydro-1H-4,7-methano-indazole-3-carboxamide]
melting point: 78 to 81 °C | inhibition at 0.3 µM (hCB2; [1]): 50.5% | inhibition (CB1; [2]): 23.5%

O=C(Nc1ccccc1)c1nn(-c2ccc(Cl)cc2)c2c1C1CCC2C1 (stereo not drawn) [Example 214, N(3)-Phenyl-1-(4-chlorophenyl)-4,5,6,7-tetrahydro-1H-4,7-methano-indazole-3-carboxamide]
melting point: 137 to 140 °C | inhibition at 0.3 µM (hCB2; [1]): 41.3% | inhibition (CB1; [2]): 10.1%

O=C(Nc1ccc(Cl)cc1)c1nn(-c2ccc(Cl)cc2)c2c1C1CCC2C1 (stereo not drawn) [Example 216, N(3)-(4-Chlorophenyl)-1-(4-chlorophenyl)-4,5,6,7-tetrahydro-1H-4,7-methano-indazole-3-carboxamide]
melting point: 182 to 184 °C | inhibition at 0.3 µM (hCB2; [1]): 20.7% | inhibition (CB1; [2]): 32.2%

O=C(NCc1ccccc1)c1nn(-c2ccc(Cl)cc2)c2c1C1CCC2C1 (stereo not drawn) [Example 220, N(3)-Benzyl-1-(4-chlorophenyl)-4,5,6,7-tetrahydro-1H-4,7-methano-indazole-3-carboxamide]
melting point: 112 to 115 °C | inhibition at 0.3 µM (hCB2; [1]): 25.3% | inhibition (CB1; [2]): 29.5%

O=C(NCc1ccc(Cl)cc1)c1nn(-c2ccc(Cl)cc2)c2c1C1CCC2C1 (stereo not drawn) [Example 222, N(3)-(4-Chlorobenzyl)-1-(4-chlorophenyl)-4,5,6,7-tetrahydro-1H-4,7-methano-indazole-3-carboxamide]
melting point: 157 to 160 °C | inhibition at 0.3 µM (hCB2; [1]): 15.7% | inhibition (CB1; [2]): 39.4%

O=C(NNc1ccccc1)c1nn(-c2ccc(Cl)cc2)c2c1C1CCC2C1 (stereo not drawn) [Example 228, N(3)-Phenylamino-1-(4-chlorophenyl)-4,5,6,7-tetrahydro-1H-4,7-methano-indazole-3-carboxamide]
melting point: 138 to 141 °C | inhibition at 0.3 µM (hCB2; [1]): 9.4% | inhibition (CB1; [2]): 16.1%

O=C(NNc1ccc(Cl)cc1)c1n[nH]c2c1C1(c3ccc(Cl)cc3)CCC2C1 (stereo not drawn) [Example 229, N(3)-[(4-Chlorophenyl)amino]-4-(4-chlorophenyl)-4,5,6,7-tetrahydro-1H-4,7-methano-indazole-3-carboxamide]
melting point: 202 to 205 °C | inhibition at 0.3 µM (hCB2; [1]): 24.6% | inhibition (CB1; [2]): 47.1%

O=C(NNc1ccccc1F)c1nn(-c2ccc(Cl)cc2)c2c1C1CCC2C1 (stereo not drawn) [Example 232, N(3)-[(2-Fluorophenyl)amino]-1-(4-chlorophenyl)-4,5,6,7-tetrahydro-1H-4,7-methano-indazole-3-carboxamide]
melting point: 91 °C | inhibition at 0.3 µM (hCB2; [1]): 13.8% | inhibition (CB1; [2]): 49.7%

O=C(NNc1ccc(F)cc1)c1nn(-c2ccc(Cl)cc2)c2c1C1CCC2C1 (stereo not drawn) [Example 234, N(3)-[(4-Fluorophenyl)amino]-1-(4-chlorophenyl)-4,5,6,7-tetrahydro-1H-4,7-methano-indazole-3-carboxamide]
melting point: 212 °C | inhibition at 0.3 µM (hCB2; [1]): 10.6% | inhibition (CB1; [2]): 36.3%

O=C(Nn1cnnc1)c1nn(-c2ccc(Cl)cc2Cl)c2c1C1CCC2C1 (stereo not drawn) [Example 240, N(3)-(4H-1,2,4-triazol-4-yl)-1-(2,4-dichlorophenyl)-4,5,6,7-tetrahydro-1H-4,7-methano-indazole-3-carboxamide]
melting point: 231 to 233 °C | inhibition at 0.3 µM (hCB2; [1]): 7.98% | inhibition (CB1; [2]): 1.5%

O=C(NCc1ccc(Cl)cc1)c1nn(-c2ccc(Cl)cc2Cl)c2c1C1CCC2C1 (stereo not drawn) [Example 250, N(3)-(4-Chlorobenzyl)-1-(2,4-dichlorophenyl)-4,5,6,7-tetrahydro-1H-4,7-methano-indazole-3-carboxamide]
melting point: 139 to 142 °C | inhibition at 0.3 µM (hCB2; [1]): 27.9% | inhibition (CB1; [2]): 27.1%

O=C(NNc1ccc(Cl)cc1)c1nn(-c2ccc(Cl)cc2Cl)c2c1C1CCC2C1 (stereo not drawn) [Example 259, N(3)-[(4-Chlorophenyl)amino]-1-(2,4-dichlorophenyl)-4,5,6,7-tetrahydro-1H-4,7-methano-indazole-3-carboxamide]
melting point: 141 to 144 °C | inhibition at 0.3 µM (hCB2; [1]): 33.3% | inhibition (CB1; [2]): 18.3%

O=C(NNc1ccc(Cl)c(Cl)c1)c1nn(-c2ccc(Cl)cc2Cl)c2c1C1CCC2C1 (stereo not drawn) [Example 262, N(3)-[(3,4-Dichlorophenyl)amino]-1-(2,4-dichlorophenyl)-4,5,6,7-tetrahydro-1H-4,7-methano-indazole-3-carboxamide]
melting point: 176 to 179 °C | inhibition at 0.3 µM (hCB2; [1]): 32.6% | inhibition (CB1; [2]): -1.6%

O=C(NN1CCCCC1)c1nn(-c2ccccc2Br)c2c1C1CCC2C1 (stereo not drawn) [Example 270, N(3)-Piperidino-1-(2-bromophenyl)-4,5,6,7-tetrahydro-1H-4,7-methano-indazole-3-carboxamide]
melting point: 236 °C | inhibition at 0.3 µM (hCB2; [1]): 8.62% | inhibition (CB1; [2]): -14.6%

O=C(NC1CCCCC1)c1nn(-c2ccccc2Br)c2c1C1CCC2C1 (stereo not drawn) [Example 271, N(3)-Cyclohexyl-1-(2-bromophenyl)-4,5,6,7-tetrahydro-1H-4,7-methano-indazole-3-carboxamide]
melting point: 178 °C | inhibition at 0.3 µM (hCB2): 46% | inhibition (CB1; read-out: % Displacement Protocol I, rat brain membrane, [3H]SR141716A displacement): 11.7%

O=C(NCc1ccccc1)c1nn(-c2ccccc2Br)c2c1C1CCC2C1 (stereo not drawn) [Example 272, N(3)-Benzyl-1-(2-bromophenyl)-4,5,6,7-tetrahydro-1H-4,7-methano-indazole-3-carboxamide]
melting point: 110 °C | inhibition at 0.3 µM (hCB2; [1]): 18.4% | inhibition (CB1; [2]): -4.5%

O=C(NNc1ccccc1)c1nn(-c2ccccc2Br)c2c1C1CCC2C1 (stereo not drawn) [Example 273, N(3)-Phenylamino-1-(2-bromophenyl)-4,5,6,7-tetrahydro-1H-4,7-methano-indazole-3-carboxamide]
melting point: 219 °C | inhibition at 0.3 µM (hCB2; [1]): 26.2% | inhibition (CB1; [2]): -5.9%
